Data from patent US9273057B2 (Bristol-Myers Squibb Company, priority 2012, dated 2016).
Counter-ions that a name gives are not always drawn.

Biological target: CK2A1 (CK2α/β) (Homo sapiens, UniProt P68400)
Experiment: CK2 kinase assay, CK2A1 (CK2α/β)
Format: biochemical
Conditions: Table A; read-out: CK2A1 (CK2α/β) (IC50)

Sequence of CK2A1 (CK2α/β) (P68400 whole entry, species assumed): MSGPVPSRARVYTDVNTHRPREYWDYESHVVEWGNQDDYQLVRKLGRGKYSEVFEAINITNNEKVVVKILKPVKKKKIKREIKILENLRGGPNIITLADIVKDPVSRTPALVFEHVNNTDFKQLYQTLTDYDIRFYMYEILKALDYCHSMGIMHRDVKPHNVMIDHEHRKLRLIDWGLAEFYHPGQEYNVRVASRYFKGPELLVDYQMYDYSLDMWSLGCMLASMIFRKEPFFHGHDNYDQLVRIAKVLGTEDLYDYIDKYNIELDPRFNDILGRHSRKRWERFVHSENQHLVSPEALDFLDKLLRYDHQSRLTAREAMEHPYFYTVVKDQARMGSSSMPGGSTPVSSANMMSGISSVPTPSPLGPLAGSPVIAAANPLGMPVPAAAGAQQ
Sequence of CK2A1 (CK2α/β) (P67870 whole entry partner, species assumed): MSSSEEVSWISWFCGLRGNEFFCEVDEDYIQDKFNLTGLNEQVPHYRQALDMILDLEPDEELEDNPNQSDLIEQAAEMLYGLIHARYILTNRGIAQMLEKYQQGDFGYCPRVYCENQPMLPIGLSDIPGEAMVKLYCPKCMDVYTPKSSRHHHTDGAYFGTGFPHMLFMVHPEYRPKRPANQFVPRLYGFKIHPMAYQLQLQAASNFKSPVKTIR

Row | Structure (SMILES) | IC50 [nM]
1 | N#Cc1cc(Nc2nc(NC3CC3)c3ncc(C#N)n3n2)c(Cl)c(N2C[C@@H]3CCCN(C4COC4)[C@@H]3C2)c1 [Example 778, 2-((2-chloro-5-cyano-3-((4aS,7aS)-1-(oxetan-3-yl)hexahydro-1H-pyrrolo[3,4-b]pyridin-6(2H)-yl)phenyl)amino)-4-(cyclopropylamino)imidazo[2,1-f][1,2,4]triazine-7-carbonitrile] | 1.09
2 | CN1CC2(CCN(c3cc(C#N)cc(Nc4nc(NC5CC5)c5ncc(C#N)n5n4)c3Cl)CC2)OC1=O [Example 780, 2-((2-chloro-5-cyano-3-(3-methyl-2-oxo-1-oxa-3,8-diazaspiro[4.5]decan-8-yl)phenyl)amino)-4-(cyclopropylamino)imidazo[2,1-f][1,2,4]triazine-7-carbonitrile] | 0.67
3 | CC(=O)N1CCC2(CCN(c3cc(C#N)cc(Nc4nc(NC5CC5)c5ncc(C#N)n5n4)c3Cl)CC2)C1 [Example 786, 2-((3-(2-acetyl-2,8-diazaspiro[4.5]decan-8-yl)-2-chloro-5-cyanophenyl)amino)-4-(cyclopropylamino)imidazo[2,1-f][1,2,4]triazine-7-carbonitrile] | 1.41
4 | CCNc1nc(Nc2cc(C#N)cc(N3CCC4(CCN(C(C)=O)C4)CC3)c2Cl)nn2c(C#N)cnc12 [Example 787, 2-((3-(2-acetyl-2,8-diazaspiro[4.5]decan-8-yl)-2-chloro-5-cyanophenyl)amino)-4-(ethylamino)imidazo[2,1-f][1,2,4]triazine-7-carbonitrile] | 1.66
5 | CC(=O)NN1CCN(c2cc(C#N)cc(Nc3nc(NC4CC4)c4ncc(C#N)n4n3)c2Cl)CC1 [Example 789, N-(4-(2-chloro-5-cyano-3-((7-cyano-4-(cyclopropylamino)imidazo[2,1-f][1,2,4]triazin-2-yl)amino)phenyl)piperazin-1-yl)acetamide] | 0.61
6 | COC(=O)NN1CCN(c2cc(C#N)cc(Nc3nc(NC4CC4)c4ncc(C#N)n4n3)c2Cl)CC1 [Example 790, methyl (4-(2-chloro-5-cyano-3-((7-cyano-4-(cyclopropylamino)imidazo[2,1-f][1,2,4]triazin-2-yl)amino)phenyl)piperazin-1-yl)carbamate] | 1.52
7 | N#Cc1cc(Nc2nc(NC3CC3)c3ncc(C#N)n3n2)c(Cl)c(N2CCN(NCC(N)=O)CC2)c1 [Example 791, 2-((4-(2-chloro-5-cyano-3-((7-cyano-4-(cyclopropylamino)imidazo[2,1-f][1,2,4]triazin-2-yl)amino)phenyl)piperazin-1-yl)amino)acetamide] | 1.52
8 | N#Cc1cc(Nc2nc(NC3CC3)c3ncc(C#N)n3n2)c(Cl)c(N2CCC3(CC2)CNC3)c1 [Example 792, 2-((2-chloro-5-cyano-3-(2,7-diazaspiro[3.5]nonan-7-yl)phenyl)amino)-4-(cyclopropylamino)imidazo[2,1-f][1,2,4]triazine-7-carbonitrile] | 1.03
9 | CC(=O)N1CC2(CCN(c3cc(C#N)cc(Nc4nc(NC5CC5)c5ncc(C#N)n5n4)c3Cl)CC2)C1 [Example 793, 2-((3-(2-acetyl-2,7-diazaspiro[3.5]nonan-7-yl)-2-chloro-5-cyanophenyl)amino)-4-(cyclopropylamino)imidazo[2,1-f][1,2,4]triazine-7-carbonitrile] | 0.81
10 | C[C@@H](O)C(=O)N1CC2(CCN(c3cc(C#N)cc(Nc4nc(NC5CC5)c5ncc(C#N)n5n4)c3Cl)CC2)C1 [Example 794, (R)-2-((2-chloro-5-cyano-3-(2-(2-hydroxypropanoyl)-2,7-diazaspiro[3.5]nonan-7-yl)phenyl)amino)-4-(cyclopropylamino)imidazo[2,1-f][1,2,4]triazine-7-carbonitrile] | 1.41
11 | C[C@H](O)C(=O)N1CC2(CCN(c3cc(C#N)cc(Nc4nc(NC5CC5)c5ncc(C#N)n5n4)c3Cl)CC2)C1 [Example 795, (S)-2-((2-chloro-5-cyano-3-(2-(2-hydroxypropanoyl)-2,7-diazaspiro[3.5]nonan-7-yl)phenyl)amino)-4-(cyclopropylamino)imidazo[2,1-f][1,2,4]triazine-7-carbonitrile] | 1.12
12 | CN1CC2(CCN(c3cc(C#N)cc(Nc4nc(NC5CC5)c5ncc(C#N)n5n4)c3Cl)CC2)C1 [Example 798, 2-((2-chloro-5-cyano-3-(2-methyl-2,7-diazaspiro[3.5]nonan-7-yl)phenyl)amino)-4-(cyclopropylamino)imidazo[2,1-f][1,2,4]triazine-7-carbonitrile] | 1.8
13 | CNC(=O)CN1CC2(CCN(c3cc(C#N)cc(Nc4nc(NC5CC5)c5ncc(C#N)n5n4)c3Cl)CC2)C1 [Example 799, 2-(7-(2-chloro-5-cyano-3-((7-cyano-4-(cyclopropylamino)imidazo[2,1-f][1,2,4]triazin-2-yl)amino)phenyl)-2,7-diazaspiro[3.5]nonan-2-yl)-N-methylacetamide] | 2.46
14 | N#Cc1cc(Nc2nc(NC3CC3)c3ncc(C#N)n3n2)c(Cl)c(N2CCC3(CC2)CN(CC(N)=O)C3)c1 [Example 800, 2-(7-(2-chloro-5-cyano-3-((7-cyano-4-(cyclopropylamino)imidazo[2,1-f][1,2,4]triazin-2-yl)amino)phenyl)-2,7-diazaspiro[3.5]nonan-2-yl)acetamide] | 2.14
15 | CCN1CC2(CCN(c3cc(C#N)cc(Nc4nc(NC5CC5)c5ncc(C#N)n5n4)c3Cl)CC2)C1 [Example 801, 2-((2-chloro-5-cyano-3-(2-ethyl-2,7-diazaspiro[3.5]nonan-7-yl)phenyl)amino)-4-(cyclopropylamino)imidazo[2,1-f][1,2,4]triazine-7-carbonitrile] | 2.16
16 | CC(C)(C(N)=O)N1CC2(CCN(c3cc(C#N)cc(Nc4nc(NC5CC5)c5ncc(C#N)n5n4)c3Cl)CC2)C1 [Example 803, 2-(7-(2-chloro-5-cyano-3-((7-cyano-4-(cyclopropylamino)imidazo[2,1-f][1,2,4]triazin-2-yl)amino)phenyl)-2,7-diazaspiro[3.5]nonan-2-yl)-2-methylpropanamide] | 2.8
17 | N#Cc1cc(Nc2nc(NC3CC3)c3ncc(C#N)n3n2)c(Cl)c(N2CCC3(CC2)CN(CC(=O)N2CCNCC2)C3)c1 [Example 804] | 1.7
18 | N#Cc1cc(Nc2nc(NC3CC3)c3ncc(C#N)n3n2)c(Cl)c(N2CCC3(CC2)CN(Cc2ccc[nH]c2=O)C3)c1 [Example 805, 2-((2-chloro-5-cyano-3-(2-((2-oxo-1,2-dihydropyridin-3-yl)methyl)-2,7-diazaspiro[3.5]nonan-7-yl)phenyl)amino)-4-(cyclopropylamino)imidazo[2,1-f][1,2,4]triazine-7-carbonitrile] | 5.35
19 | CC(=O)N1CCC2(CC1)CN(c1cc(C#N)cc(Nc3nc(NC4CC4)c4ncc(C#N)n4n3)c1Cl)C2 [Example 806, 2-((3-(7-acetyl-2,7-diazaspiro[3.5]nonan-2-yl)-2-chloro-5-cyanophenyl)amino)-4-(cyclopropylamino)imidazo[2,1-f][1,2,4]triazine-7-carbonitrile] | 0.84
20 | CCNc1nc(Nc2cc(C#N)cc(N3CC[C@@H](NC(=O)OC)[C@H](OC(=O)[C@@H](N)CCCNC(=N)N)C3)c2Cl)nn2c(C#N)cnc12 [Example 808, (S)-(3R,4R)-1-(2-chloro-5-cyano-3-((7-cyano-4-(ethylamino)imidazo[2,1-f][1,2,4]triazin-2-yl)amino)phenyl)-4-((methoxycarbonyl)amino)piperidin-3-yl 2-amino-5-guanidinopentanoate trihydrochloride] | 0.44
